Laboratory results as given in patent US8501446B2 (Vertex Pharmaceuticals Incorporated, priority 2004, dated 2013).

Assays:
Format in all cases: biochemical
ROCK I (AA 6-553) = biological target: T1, ROCK I (AA 6-553) (Homo sapiens, UniProt Q13464); test: ROCK inhibition assay, standard coupled enzyme system ("Enzyme"); settings: enzyme-linked assay
T1 construct: ROCK I (AA 6-553)
Summary of the method: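 ROCK I (AA 6-553) at 45 nM and 30 °C with 45 μM ATP and 200 μM peptide, in 100 mM HEPES pH 7.5, 10 mM MgCl2, 25 mM NaCl, 2 mM DTT, 1.5% DMSO. ADP output read by a PK/LDH coupled system: 2.5 mM PEP, 350 μM NADH, 30 μg/ml PK, 10 μg/ml LDH.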

[1] = biological target: T2, full length Aurora-A (AA 1-403) (Homo sapiens, UniProt O14965); test: Aurora-A inhibition assay, standard coupled enzyme system; settings: average Ki if more than one value determined
T2 construct: full length Aurora-A (AA 1-403)
T2 sequence (O14965 1-403): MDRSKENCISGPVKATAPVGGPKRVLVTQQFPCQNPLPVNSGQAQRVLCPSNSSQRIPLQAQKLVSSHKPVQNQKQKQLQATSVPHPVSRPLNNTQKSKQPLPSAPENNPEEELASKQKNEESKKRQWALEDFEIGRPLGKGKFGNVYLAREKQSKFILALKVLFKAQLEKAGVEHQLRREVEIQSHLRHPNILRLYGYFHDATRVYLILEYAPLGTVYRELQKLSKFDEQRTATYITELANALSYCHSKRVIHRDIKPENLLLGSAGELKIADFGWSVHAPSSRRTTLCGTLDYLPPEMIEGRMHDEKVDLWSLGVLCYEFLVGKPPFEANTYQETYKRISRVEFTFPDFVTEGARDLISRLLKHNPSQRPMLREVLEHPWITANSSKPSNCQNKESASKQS

Aurora-C = biological target: T3, Aurora-C (Homo sapiens, UniProt Q9UQB9); test: Aurora-C inhibition assay, coupled enzyme system as for Aurora-A; settings: average Ki if more than one value determined
T3 sequence (Q9UQB9 1-309): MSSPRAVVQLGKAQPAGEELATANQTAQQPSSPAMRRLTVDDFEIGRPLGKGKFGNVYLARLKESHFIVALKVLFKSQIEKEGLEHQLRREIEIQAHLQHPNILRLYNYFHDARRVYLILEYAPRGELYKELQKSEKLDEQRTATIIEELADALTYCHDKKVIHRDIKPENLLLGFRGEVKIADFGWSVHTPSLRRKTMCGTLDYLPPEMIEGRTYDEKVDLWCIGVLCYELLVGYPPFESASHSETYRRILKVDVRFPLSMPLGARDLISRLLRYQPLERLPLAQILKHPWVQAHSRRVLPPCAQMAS
Description: Compounds were screened for their ability to inhibit full length Aurora-A (AA 1-403) activity using a standard coupled enzyme system (Fox et al., Protein Sci. 7, pp. 2249 (1998)). Reactions were carried out in a solution containing 100 mM HEPES (pH 7.5), 10 mM MgCl2, 25 mM NaCl, 300 μM NADH, 1 mM DTT and 3% DMSO. Final substrate concentrations in the assay were 200 μM ATP (Sigma Chemicals, St Louis, Mo.) and 800 μM peptide (LRRASLG, American Peptide, Sunnyvale, Calif.). Reactions were carried out at 30° C. and 35 nM Aurora-A. Final concentrations of the components of the coupled enzyme system were 2.5 mM phosphoenolpyruvate, 200 μM NADH, 60 μg/ml pyruvate kinase and 20 μg/ml lactate dehydrogenase.
An assay stock buffer solution was prepared containing all of the reagents listed above with the exception of ATP and the test compound of interest. The assay stock buffer solution (60 μl) was incubated in a 96 well plate with 2 μl of the test compound of interest at final concentrations spanning 0.002 μM to 30 μM at 30° C. for 10 min. Typically, a 12 point titration was conducted by preparing serial dilutions (from 1 mM compound stocks) with DMSO of the test compounds in daughter plates. The reaction was initiated by the addition of 5 μl of ATP (final concentration 200 μM). Rates of reaction were obtained using a Molecular Devices Spectramax plate reader (Sunnyvale, Calif.) over 10 min at 30° C. The Ki values were determined from the rate data as a function of inhibitor concentration using computerized nonlinear regression (Prism 3.0, Graphpad Software, San Diego, Calif.). Aurora-C activity was screened in a similar manner using Aurora-C protein. Aurora-B activity was screened using a radioactive assay, such as described in Examples 1 and 2, but using Aurora-B protein.

Aurora-B = Aurora-B (Homo sapiens, UniProt Q96GD4); test: Aurora-B inhibition assay, radioactive assay; settings: average Ki if more than one value determined
Sequence of Aurora-B (Q96GD4 whole entry): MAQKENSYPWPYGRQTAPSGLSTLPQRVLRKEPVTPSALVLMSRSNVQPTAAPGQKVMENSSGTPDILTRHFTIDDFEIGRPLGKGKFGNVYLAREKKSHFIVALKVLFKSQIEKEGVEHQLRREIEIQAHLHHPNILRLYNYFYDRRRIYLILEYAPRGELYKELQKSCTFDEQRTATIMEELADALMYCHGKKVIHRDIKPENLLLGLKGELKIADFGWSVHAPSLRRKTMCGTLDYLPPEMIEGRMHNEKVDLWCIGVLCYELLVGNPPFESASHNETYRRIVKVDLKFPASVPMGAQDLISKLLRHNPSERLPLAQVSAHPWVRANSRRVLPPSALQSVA
Summary of the method: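 Aurora-B protein substituted into the standard radioactive kinase format: reaction quenched with TCA, product captured on glass fiber filters and 33P counted. Ki(app) derived by fitting background-corrected counts against inhibitor concentration.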

JAK3 = biological target: T4, JAK3 (Homo sapiens, UniProt P52333); test: JAK3 inhibition assay (standard radioactive enzyme assay); settings: average Ki if more than one value determined
T4 sequence (P52333 1-1124): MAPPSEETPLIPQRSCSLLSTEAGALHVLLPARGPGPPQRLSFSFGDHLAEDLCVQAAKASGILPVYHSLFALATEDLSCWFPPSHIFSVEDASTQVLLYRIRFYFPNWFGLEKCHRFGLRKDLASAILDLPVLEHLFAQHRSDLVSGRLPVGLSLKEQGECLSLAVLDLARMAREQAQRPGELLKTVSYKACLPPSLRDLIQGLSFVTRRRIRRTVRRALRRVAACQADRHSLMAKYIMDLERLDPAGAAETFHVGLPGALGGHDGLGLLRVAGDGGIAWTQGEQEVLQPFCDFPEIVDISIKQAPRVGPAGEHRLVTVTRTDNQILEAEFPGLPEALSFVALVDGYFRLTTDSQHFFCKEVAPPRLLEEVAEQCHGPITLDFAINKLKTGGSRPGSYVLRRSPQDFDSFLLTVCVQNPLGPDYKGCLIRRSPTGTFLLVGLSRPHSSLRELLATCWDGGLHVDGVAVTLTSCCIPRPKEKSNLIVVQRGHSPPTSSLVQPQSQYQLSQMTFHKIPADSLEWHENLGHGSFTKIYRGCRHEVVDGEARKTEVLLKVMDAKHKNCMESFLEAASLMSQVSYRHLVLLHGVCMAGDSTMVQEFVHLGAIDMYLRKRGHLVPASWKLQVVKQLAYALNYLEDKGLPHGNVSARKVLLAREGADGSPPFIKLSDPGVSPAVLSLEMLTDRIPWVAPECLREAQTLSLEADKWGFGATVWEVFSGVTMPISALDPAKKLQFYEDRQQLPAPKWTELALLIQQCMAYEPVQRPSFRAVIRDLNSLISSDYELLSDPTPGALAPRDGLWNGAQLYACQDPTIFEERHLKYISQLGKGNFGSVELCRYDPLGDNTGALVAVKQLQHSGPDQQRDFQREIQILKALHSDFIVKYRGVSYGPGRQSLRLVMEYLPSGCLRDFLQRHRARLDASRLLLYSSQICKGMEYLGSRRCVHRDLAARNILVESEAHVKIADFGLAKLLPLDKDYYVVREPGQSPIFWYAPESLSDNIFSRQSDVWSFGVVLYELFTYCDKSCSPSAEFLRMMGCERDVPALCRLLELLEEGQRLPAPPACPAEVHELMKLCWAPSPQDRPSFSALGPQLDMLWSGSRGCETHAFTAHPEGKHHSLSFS

T1 sequence (Q13464 6-553, species assumed): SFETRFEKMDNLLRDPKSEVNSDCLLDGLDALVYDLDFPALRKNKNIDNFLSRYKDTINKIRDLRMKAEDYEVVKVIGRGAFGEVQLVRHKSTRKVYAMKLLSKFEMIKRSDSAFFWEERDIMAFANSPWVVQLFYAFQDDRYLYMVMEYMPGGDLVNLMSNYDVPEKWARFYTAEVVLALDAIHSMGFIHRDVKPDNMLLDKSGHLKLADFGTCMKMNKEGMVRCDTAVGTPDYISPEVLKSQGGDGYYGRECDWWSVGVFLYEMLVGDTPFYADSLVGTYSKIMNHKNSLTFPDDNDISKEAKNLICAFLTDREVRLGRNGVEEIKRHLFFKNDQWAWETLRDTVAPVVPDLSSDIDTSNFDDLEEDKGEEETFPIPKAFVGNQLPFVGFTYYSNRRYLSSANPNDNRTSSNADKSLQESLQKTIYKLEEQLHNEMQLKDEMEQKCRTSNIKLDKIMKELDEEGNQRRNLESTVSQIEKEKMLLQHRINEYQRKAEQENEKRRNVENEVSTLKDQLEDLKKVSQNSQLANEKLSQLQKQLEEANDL

SMILES | Ki (ROCK I (AA 6-553)) | Ki [1] | Ki (Aurora-C) | Ki (Aurora-B) | Ki (JAK3)
Clc1ccc(CNc2cccc(-c3c[nH]c4ncc(Cl)cc34)n2)cc1 [Compound 242] | 500 to 5000 nM | < 500 nM | < 500 nM | 500 to 5000 nM | 
C[C@H](Nc1cccc(-c2c[nH]c3ncc(Cl)cc23)n1)c1ccccc1 [Compound 252] | 500 to 5000 nM | < 500 nM | < 500 nM |  | 
C[C@@H](Nc1cccc(-c2c[nH]c3ncc(Cl)cc23)n1)c1ccccc1 [Compound 260] | 500 to 5000 nM | < 500 nM | < 500 nM |  | 
Clc1cnc2[nH]cc(-c3cccc(NC4CCCCC4)n3)c2c1 [Compound 290] | 500 to 5000 nM | < 500 nM | 500 to 5000 nM | 500 to 5000 nM | 
C[C@H](Nc1nc(-c2c[nH]c3ncc(Cl)cc23)ncc1F)c1cccc(O)c1 [Compound 306] | 500 to 5000 nM | < 500 nM | < 500 nM | < 500 nM | 
Fc1cnc(-c2c[nH]c3ncc(Cl)cc23)nc1NCc1cccc(Cl)c1 [Compound 312] | 500 to 5000 nM | < 500 nM | < 500 nM | < 500 nM | 
C[C@H](Nc1nc(-c2c[nH]c3ncc(Cl)cc23)ncc1F)c1cccc(O[C@H]2CCNC2)c1 [Compound 321] | 500 to 5000 nM | < 500 nM | < 500 nM | 500 to 5000 nM | 
Fc1cnc(-c2c[nH]c3ncc(Cl)cc23)nc1NCC1CCCNC1 (stereo not shown) [Compound 326] | < 500 nM | < 500 nM | < 500 nM | < 500 nM | 
Fc1cnc(-c2c[nH]c3ncc(Cl)cc23)nc1NCC1CCNCC1 [Compound 327] | < 500 nM | < 500 nM | < 500 nM | < 500 nM | 
Fc1cnc(-c2c[nH]c3ncc(Cl)cc23)nc1NCC1CCCN1 (stereo not shown) [Compound 328] | 500 to 5000 nM | < 500 nM | < 500 nM | < 500 nM | 
C[C@H](Nc1nc(-c2c[nH]c3ncc(Cl)cc23)ncc1F)c1cccc(NC(=O)OC(C)(C)C)c1 [Compound 331] | 500 to 5000 nM | < 500 nM | < 500 nM |  | 
C[C@H](Nc1nc(-c2c[nH]c3ncc(Cl)cc23)ncc1F)c1cccc(N)c1 [Compound 333] | 500 to 5000 nM | < 500 nM | < 500 nM | < 500 nM | 
COc1cnc(-c2c[nH]c3ncc(Cl)cc23)nc1N[C@@H](C)C(=O)NCC(F)(F)F [Compound 407] | 500 to 5000 nM | < 500 nM | < 500 nM |  | 
CCS(=O)(=O)NCCNC(=O)[C@H](C)Nc1nc(-c2c[nH]c3ncc(Cl)cc23)ncc1F [Compound 445] |  | < 500 nM | < 500 nM | 500 to 5000 nM | 
C[C@H](Nc1nc(-c2c[nH]c3ncc(Cl)cc23)ncc1F)C(=O)NCCC#N [Compound 461] |  | < 500 nM | < 500 nM | < 500 nM | 

Other lines, results leading:

Ki (ROCK I (AA 6-553)) | Ki [1] | Ki (Aurora-C) | Ki (Aurora-B) | Ki (JAK3) | SMILES
500 to 5000 nM | < 500 nM | < 500 nM | < 500 nM |  | Clc1ccc(CNc2ccnc(-c3c[nH]c4ncc(Cl)cc34)n2)cc1 [Compound 237]
500 to 5000 nM | < 500 nM | < 500 nM | < 500 nM |  | Fc1cnc(-c2c[nH]c3ncc(Cl)cc23)nc1NCc1ccc(Cl)cc1 [Compound 238]
500 to 5000 nM | < 500 nM | < 500 nM | < 500 nM |  | C[C@H](Nc1nc(-c2c[nH]c3ncc(Cl)cc23)ncc1F)c1ccc(F)cc1 [Compound 285]
500 to 5000 nM | < 500 nM | < 500 nM | < 500 nM |  | Fc1cnc(-c2c[nH]c3ncc(Cl)cc23)nc1NCc1ccccn1 [Compound 316]
500 to 5000 nM | < 500 nM | < 500 nM | < 500 nM |  | Fc1cnc(-c2c[nH]c3ncc(Cl)cc23)nc1NCc1cccnc1 [Compound 317]
500 to 5000 nM | < 500 nM | < 500 nM | < 500 nM |  | C[C@H](Nc1cc(C(=O)O)nc(-c2c[nH]c3ncc(Cl)cc23)n1)c1ccc(F)cc1 [Compound 323]
500 to 5000 nM | < 500 nM | < 500 nM | < 500 nM |  | Cc1cc(N[C@@H](C)c2ccc(F)cc2)nc(-c2c[nH]c3ncc(Cl)cc23)n1 [Compound 324]
500 to 5000 nM | < 500 nM | < 500 nM | < 500 nM |  | Fc1cnc(-c2c[nH]c3ncc(Cl)cc23)nc1NCC1CCCCN1 (stereo not shown) [Compound 325]
< 500 nM | < 500 nM | < 500 nM | < 500 nM |  | Fc1cnc(-c2c[nH]c3ncc(Cl)cc23)nc1NCC1CCNC1 (stereo not shown) [Compound 329]
500 to 5000 nM | < 500 nM | < 500 nM |  | < 500 nM | C[C@H](Nc1nc(-c2c[nH]c3ncc(Cl)cc23)ncc1F)C(=O)NCCO [Compound 391]
500 to 5000 nM | < 500 nM | < 500 nM |  |  | O=C(CNc1nc(-c2c[nH]c3ncc(Cl)cc23)ncc1F)NCC(F)(F)F [Compound 400]
500 to 5000 nM | < 500 nM | < 500 nM |  |  | C#Cc1cnc(-c2c[nH]c3ncc(Cl)cc23)nc1N[C@@H](C)C(=O)NCC(F)(F)F [Compound 411]
 | < 500 nM | < 500 nM | < 500 nM |  | C[C@H](Nc1nc(-c2c[nH]c3ncc(Cl)cc23)ncc1F)C(=O)NCCNC(=O)OCc1ccccc1 [Compound 458]
